The source of these data is patent US7354588B1, “Functional derivatives of ICAM-1 with altered ability to bind LFA-1 or HRV” (Dana Farber Cancer Institute, priority 1987, dated 2008).

*1 amine or outer side, *2 acyl side, *3 side chain or, on linkers, in order; H or OH if unused. Where a SMILES comes first, the peptide text is derived from it. Bridges are numbered along the chain shown (N, C = ends). Roman numbers before positions name the chains, in order. [ ]: non-standard residue; d: D form. Actinocin(9to1) = Cc1c2oc3c(C)ccc(C(=O)[*:1])c3nc-2c(C(=O)[*:2])c(N)c1=O; NMeV = CN[C@H](C(=O)O)C(C)C; Sar = CNCC(=O)O

Assay [1] concerns ICAM-1 expression on human dermal fibroblasts. Description: ^125I goat anti-mouse IgG binding assay, anti-ICAM-1, dermal fibroblasts. It is filed as cell-based. Here is the method:
(§1) The kinetics of interleukin 1 and gamma interferon effects on ICAM-1 expression on dermal fibroblasts were determined using the ^125I goat anti-mouse IgG binding assay of Dustin, M. L. et al. (J. Immunol. 137:245-254 (1986); which reference is herein incorporated by reference). To perform this binding assay, human dermal fibroblasts were grown in a 96-well microtiter plate to a density of 2−8×10^4 cells/well (0.32 cm^2). The cells were washed twice with RPMI 1640 medium supplemented as described in Example 1. The cells were additionally washed once with Hanks Balanced Salt Solution (HBSS), 10 mM HEPES, 0.05% NaN3 and 10% heat-inactivated fetal bovine serum. Washing with this binding buffer was done at 4° C. To each well was added 50 μl of the above-described binding buffer and 50 μl of the appropriate hybridoma supernatant with X63 and W6/32 as the negative and positive controls, respectively. After incubation for 30 minutes at 4° C., with gentle agitation, the wells were washed twice with binding buffer, and the second antibody ^125I-goat anti-mouse IgG, was added at 50 nCi in 100 μl. The ^125I-goat anti-mouse antibody was prepared by using Iodogen (Pierce) according to the method of Fraker, P. J. et al. (Biochem. Biophys. Res. Commun. 80:849 (1978)). After 30 minutes at 4° C., the wells were washed twice with 200 μl of binding buffer and the cell layer was solubilized by adding 100 μl of 0.1 N NaOH. This and a 100 μl wash were counted in a Beckman 5500 gamma counter. The specific counts per minute bound was calculated as [cpm with monoclonal antibody]-[cpm with X63]. All steps, including induction with specific reagents, were carried out in quadruplicate.

In assay [2] the test system is HLA-A,B,C expression on human dermal fibroblasts. Description: ^125I goat anti-mouse IgG binding assay, anti-HLA-A,B,C, dermal fibroblasts. It is filed as cell-based. Here is the method: as §1
For assay [3], the system named is ICAM-1 expression on human umbilical vein endothelial cells (HUVEC). Description: Radioimmune assay of ICAM-1 expression with ^125I RR1/1, HUVEC. Format: cell-based. The note with it: for ^125I Specifically bound (CPM), HUVEC / fold of control ICAM-1 expression, HUVEC: 16 hr; for ^125I Specifically bound (CPM), HUVEC: rIL-1 beta 100 ng/ml, rIL-1 alpha 50 ng/ml, rTNF alpha 50 ng/ml, LPS 10 μg/ml, rIFN gamma 10 ng/ml, polymyxin B 10 μg/ml, control 603 ± 11; for fold of control ICAM-1 expression, HUVEC: same concentrations as CPM; for increase of ICAM-1 expression on HUVEC: IL-1 beta 100 ng/ml, rTNF 50 ng/ml, Interferon-gamma 10,000 U/ml. Here is the method: (§2) In order to measure ICAM-1 expression, a radioimmune assay was developed. In this assay, purified RR1/1 was iodinated using iodogen to a specific activity of 10 μCi/μg. Endothelial cells were grown in 96 well plates and treated as described for each experiment. The plates were cooled at 4° C. by placing in a cold room for 0.5-1 hr, not immediately on ice. The monolayers were washed 3× with cold complete media and then incubated 30 m at 4° C. with ^125I RR1/1. The monolayers were then washed 3× with complete media. The bound 125, was released using 0.1 N NaOH and counted. The specific activity of the ^125I RR1/1 was adjusted using unlabeled RR1/1 to obtain a linear signal over the range of antigen densities encountered in this study. Non-specific binding was determined in the presence of a thousand fold excess of unlabeled RR1/1 and was subtracted from total binding to yield the specific binding.
(§3) Upregulation of ICAM-1 expression on HVEC and HSVEC-HUVEC or HSVEC were seeded into 96 well plates at 1:3 from a confluent monolayer and allowed to grow to confluence. Cells were then treated with the indicated materials or media for 16 hr and the RIA done as in methods. All points were done in quadruplicate.

Assay [4] deals with ICAM-1 expression on human saphenous vein endothelial cells (HSVEC). Kind of assay: Radioimmune assay of ICAM-1 expression with ^125I RR1/1, HSVEC. Format: cell-based. The note with it: for ^125I Specifically bound (CPM), HSVEC / fold of control ICAM-1 expression, HSVEC: 16 hr; for ^125I Specifically bound (CPM), HSVEC: rIL-1 beta 100 ng/ml, rTNF alpha 50 ng/ml, LPS 10 μg/ml, rIFN gamma 10 ng/ml, control 1132 ± 31; for fold of control ICAM-1 expression, HSVEC: same concentrations as CPM; for increase of ICAM-1 expression on HSVEC: IL-1 beta 100 ng/ml, rTNF 50 ng/ml, Interferon-gamma 10,000 U/ml. The procedure: as §2, §3

Assay [5] deals with HRV14. Description: Binding of [^35S]-Met labeled HRV14 to COS cells expressing ICAM-1 mutants. It is filed as cell-based, human rhinovirus 14. The settings on record: 35S met-labeled HRV14 binding to COS cells expressing ICAM-1 mutant; normalized for percent of cells expressing mutant and for wild type binding; mean.
Assay [6] deals with R6.5 mAb. Kind of assay: Indirect immunofluorescence flow cytofluorometry: mAb R6.5 binding to COS cells expressing ICAM-1 mutants (SLFI, % CL203). It is filed as cell-based. The settings on record: SLFI normalized to CL203 SLFI of the mutant. A digest of the protocol: (§4)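 Transfected COS cells expressing ICAM-1 point mutants were stained by indirect immunofluorescence and analysed by flow cytometry. Specific linear fluorescence intensity of CL203 is expressed relative to wild-type CL203; RR1/1, R6.5 and LB-2 SLFI are expressed relative to CL203 SLFI of the same mutant.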

The test system of assay [7] is LB-2 mAb. Description: Indirect immunofluorescence flow cytofluorometry: mAb LB-2 binding to COS cells expressing ICAM-1 mutants (SLFI, % CL203). The settings on record: SLFI normalized to CL203 SLFI of the mutant. Format: cell-based. An outline of the steps:
as §4

Assay [8] concerns RR1/1 mAb. Description: Indirect immunofluorescence flow cytofluorometry: mAb RR1/1 binding to COS cells expressing ICAM-1 mutants (SLFI, % CL203). It is filed as cell-based. The note with it: SLFI normalized to CL203 SLFI of the mutant. An outline of the steps:
as §4

Assay [9] has as its target T1, LFA-1 (Homo sapiens, UniProt P05107+P20701).
T1 construct: endogenous in cells
Description: Adherence of COS cells expressing ICAM-1 or ICAM-1 mutants to plastic-bound purified LFA-1. Format: cell-based. The note with it: COS cells expressing ICAM-1 mutant adhering to LFA-1 coated plastic; normalized for percent of cells expressing mutant and for wild type binding; mean.

For assay [10], the system named is CL203 mAb. Description: Indirect immunofluorescence flow cytofluorometry: mAb CL203 binding to COS cells expressing ICAM-1 mutants (SLFI, % WT). Format: cell-based. The settings on record: SLFI of CL203 for mutant normalized to wild type CL203 SLFI; level of expression. An outline of the steps:
as §4

Setting [11] is: cycloheximide 20 μg/ml, actinomycin D 10 μM.
[12] abbreviates: cells treated with IFN-γ (10 U/ml) (18 hr), alone or plus the inhibitor named.
[13] abbreviates: cells treated with IFN-γ (10 U/ml) (18 hr), alone or plus the inhibitor named (cycloheximide 20 μg/ml, actinomycin D 10 μM).

T1 sequence (P20701 26-1170): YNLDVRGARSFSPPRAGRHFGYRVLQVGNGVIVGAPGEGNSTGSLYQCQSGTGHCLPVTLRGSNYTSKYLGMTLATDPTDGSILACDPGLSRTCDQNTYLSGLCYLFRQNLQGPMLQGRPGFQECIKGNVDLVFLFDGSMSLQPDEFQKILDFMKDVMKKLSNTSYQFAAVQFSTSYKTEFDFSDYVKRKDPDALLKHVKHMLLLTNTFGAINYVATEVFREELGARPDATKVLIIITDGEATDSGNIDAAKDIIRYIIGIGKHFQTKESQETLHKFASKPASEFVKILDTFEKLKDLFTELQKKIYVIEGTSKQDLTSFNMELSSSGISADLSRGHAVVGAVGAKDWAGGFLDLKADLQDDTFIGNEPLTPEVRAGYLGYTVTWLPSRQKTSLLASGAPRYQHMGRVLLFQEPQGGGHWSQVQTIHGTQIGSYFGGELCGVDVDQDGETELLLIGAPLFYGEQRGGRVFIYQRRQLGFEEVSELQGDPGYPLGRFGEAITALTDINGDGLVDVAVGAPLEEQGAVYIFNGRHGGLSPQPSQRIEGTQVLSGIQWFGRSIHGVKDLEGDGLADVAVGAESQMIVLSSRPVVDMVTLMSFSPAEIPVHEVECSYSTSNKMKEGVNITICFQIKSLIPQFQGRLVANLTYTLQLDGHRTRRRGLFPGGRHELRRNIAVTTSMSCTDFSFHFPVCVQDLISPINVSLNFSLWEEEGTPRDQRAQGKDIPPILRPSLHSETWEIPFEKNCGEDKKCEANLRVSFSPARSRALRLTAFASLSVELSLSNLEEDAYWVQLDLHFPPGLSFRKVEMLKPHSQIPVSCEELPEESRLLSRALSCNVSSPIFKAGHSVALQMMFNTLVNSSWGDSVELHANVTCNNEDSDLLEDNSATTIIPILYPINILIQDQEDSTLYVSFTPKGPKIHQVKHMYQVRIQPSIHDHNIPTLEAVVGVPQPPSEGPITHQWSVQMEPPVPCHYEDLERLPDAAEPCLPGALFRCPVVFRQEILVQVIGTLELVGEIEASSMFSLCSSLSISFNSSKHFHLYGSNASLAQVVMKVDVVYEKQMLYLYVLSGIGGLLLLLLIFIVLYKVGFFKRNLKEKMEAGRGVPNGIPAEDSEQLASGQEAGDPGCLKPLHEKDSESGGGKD
T1 sequence (P05107 23-769): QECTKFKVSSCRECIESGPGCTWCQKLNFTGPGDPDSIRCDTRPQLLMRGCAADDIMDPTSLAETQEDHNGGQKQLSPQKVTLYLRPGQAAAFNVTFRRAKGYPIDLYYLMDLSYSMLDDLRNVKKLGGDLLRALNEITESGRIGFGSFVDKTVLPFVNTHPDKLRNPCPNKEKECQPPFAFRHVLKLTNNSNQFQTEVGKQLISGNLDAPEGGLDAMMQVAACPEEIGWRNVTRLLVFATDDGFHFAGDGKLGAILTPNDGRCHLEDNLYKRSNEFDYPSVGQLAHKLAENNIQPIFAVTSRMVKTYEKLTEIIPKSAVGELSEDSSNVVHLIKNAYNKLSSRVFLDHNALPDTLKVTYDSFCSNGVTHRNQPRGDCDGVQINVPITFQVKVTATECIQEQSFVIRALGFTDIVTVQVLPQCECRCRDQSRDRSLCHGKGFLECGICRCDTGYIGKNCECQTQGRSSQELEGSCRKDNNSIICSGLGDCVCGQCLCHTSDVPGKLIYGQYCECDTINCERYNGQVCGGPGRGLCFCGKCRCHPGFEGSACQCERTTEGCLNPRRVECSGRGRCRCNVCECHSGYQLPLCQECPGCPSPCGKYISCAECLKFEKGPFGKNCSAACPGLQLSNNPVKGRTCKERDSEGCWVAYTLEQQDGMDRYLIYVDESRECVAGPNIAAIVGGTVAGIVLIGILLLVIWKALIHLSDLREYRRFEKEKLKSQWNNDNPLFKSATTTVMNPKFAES

As to `Cc1c2oc3c(C)ccc(C(=O)N[C@@H]4C(=O)N[C@H](C(C)C)C(=O)N5CCC[C@H]5C(=O)N(C)CC(=O)N(C)[C@@H](C(C)C)C(=O)O[C@@H]4C)c3nc-2c(C(=O)N[C@@H]2C(=O)N[C@H](C(C)C)C(=O)N3CCC[C@H]3C(=O)N(C)CC(=O)N(C)[C@@H](C(C)C)C(=O)O[C@@H]2C)c(N)c1=O` [actinomycin D] (I: T[dV]P[Sar][NMeV] / II: T[dV]P[Sar][NMeV]; ester I:1-I:C, II:1-II:C; linker I:N-II:N via Actinocin(9to1)), the “effect on interleukin 1 and gamma interferon induced ICAM-1 expression on fibroblasts” value in assay [1] (setting [11]) is given as “abolish the effects”.
Consider cycloheximide, for which the “^125I Goat Anti-Mouse IgG Specifically Bound (cpm), anti-HLA-A,B,C” value in assay [2] (setting [12]) amounted to 10675 ± 800 cpm; in [2] (cells treated with IL 1 (10 U/ml) (4 hr), alone or plus the inhibitor named) it was 12676 ± 446 cpm; in assay [2] (no cytokine, Control (4 hr) 11928 ± 600, cycloheximide 20 μg/ml, actinomycin D 10 μM, tunicamycin 2 μg/ml, mean ± SD), 10678 ± 471 cpm. The “^125I Goat Anti-Mouse IgG Specifically Bound (cpm), anti-ICAM-1” value in assay [1] (setting [13]) came to 1461 ± 59 cpm; in assay [1] (cells treated with IL 1 (10 U/ml) (4 hr), alone or plus the inhibitor named (cycloheximide 20 μg/ml, actinomycin D 10 μM, tunicamycin 2 μg/ml)), 1619 ± 381 cpm; in assay [1] (no cytokine, Control (4 hr) 1524 ± 140, cycloheximide 20 μg/ml, actinomycin D 10 μM, tunicamycin 2 μg/ml, mean ± SD), 1513 ± 210 cpm. Moreover, the “effect on interleukin 1 and gamma interferon induced ICAM-1 expression on fibroblasts” value in assay [1] (setting [11]) was “abolish the effects”.
For “rIFN gamma: recombinant gamma interferon”, the “^125I Goat Anti-Mouse IgG Specifically Bound (cpm), anti-HLA-A,B,C” value in assay [2] (setting [12]) came out at 23675 ± 500 cpm. Besides, in [3], the “^125I Specifically bound (CPM), HUVEC” value is reported as 3120 ± 308 CPM; the “fold of control ICAM-1 expression, HUVEC” value was 5.2x; the “increase of ICAM-1 expression on HUVEC” value turned out to be 5.2 fold. Moreover, in assay [4], the “^125I Specifically bound (CPM), HSVEC” value is on record as 4002 ± 664 CPM; the “fold of control ICAM-1 expression, HSVEC” value is 3.5x; the “increase of ICAM-1 expression on HSVEC” value came out at 3.5 fold. The “^125I Goat Anti-Mouse IgG Specifically Bound (cpm), anti-ICAM-1” value in [1] (setting [13]) was 4659 ± 109 cpm. For the same molecule, the “half-life for ICAM-1 induction” value in assay [1] (human dermal fibroblasts, 10 U/ml) worked out at 3.75 h.
As to rIL-1 beta: recombinant IL-1 beta, in assay [3], the “^125I Specifically bound (CPM), HUVEC” value is 5680 ± 633 CPM; the “fold of control ICAM-1 expression, HUVEC” value turned out to be 9x; the “increase of ICAM-1 expression on HUVEC” value was found to be 9 fold. For the same molecule, the “half-maximal increase of ICAM-1 expression” value in assay [3] (endothelial cells (HUVEC and HSVEC)) stood at 15 ng/mL. Besides, in assay [4], the “^125I Specifically bound (CPM), HSVEC” value turned out to be 8320 ± 766 CPM; the “fold of control ICAM-1 expression, HSVEC” value came out at 7.3x; the “increase of ICAM-1 expression on HSVEC” value amounted to 7.3 fold.

B1: E254DE/KEK (protein, UniProt P05362 28-532, looked up, variant E254K D255E E256K)
Intercellular adhesion …: QTSVSPSKVILPRGGSVLVTCSTSCDQPKLLGIETPLPKKELLLPGNNRKVYELSNVQEDSQPMCYSNCPDGQSTAKTFLTVYWTPERVELAPLPSWQPVGKNLTLRCQVEGGAPRANLTVVLLRGEKELKREPAVGEPAEVTTTVLVRRDHHGANFSCRTELDLRPQGLELFENTSAPYQLQTFVLPATPPQLVSPRVLEVDTQGTVVCSLDGLFPVSEAQVHLALGDQRLNPTVTYGNDSFSAKASVSVTAKEKGTQRLTCAVILGNQSQETLQTVTIYSFPAPNVILTKPEVSEGTEVTVKCEAHPRAKVTLNGVPAQPLGPRAQLLLKATPEDNGRSFSCSATLEVAGQLIHKNQTRELRVLYGPRLDERDCPGNWTWPENSQQTPMCQAWGNPLPELKCLKDGTFPLPIGESVTVTRDLEGTYLCRARSTQGEVTRKVTVNVLSPRYEIVIITVVAAAVIMGTAGLSTYLYNRQRKIKKYRLQQAQKGTPMKPNTQATPP
Turning to B1, the “HRV Binding %” value in [5] stood at 99%. In [6], the “SLFI (% CL203) R6.5” value worked out at 129 % CL203. For the same molecule, the “SLFI (% CL203) LB-2” value in [7] turned out to be 81 % CL203. For the same molecule, in assay [8], the “SLFI (% CL203) RR/1” value was 178 % CL203. Further, the “LFA-1 Binding %” value in assay [9] is reported as 122%. Besides, the “Cl203 % WT (SLFI)” value in assay [10] is 180 % WT.

B2: rIL-1 alpha: recombinant IL-1 alpha (protein, UniProt P01583 113-271, looked up)
Interleukin-1 alpha: SAPFSFLSNVKYNFMRIIKYEFILNDALNQSIIRANDQYLTAAALHNLDEAVKFDMGAYKSSKDDAKITVILRISKTQLYVTAQDEDQPVLLKEMPEIPKTITGSETNLLFFWETHGTKNYFTSVAHPNLFIATKQDYWVCLAGGPPSITDFQILENQA
Consider B2, for which, in [3], the “^125I Specifically bound (CPM), HUVEC” value stood at 9910 ± 538 CPM and the “fold of control ICAM-1 expression, HUVEC” value came to 16x.
